Data as given in patent US12122756B2, “Biflavone compound against I-type herpes simplex virus, and preparation method therefor and use thereof” (priority 2022, dated 2024).

Tests used:
Type in all cases: cell-based, Herpes simplex virus type I
[1] = tested on: HSV-I; test: Plaque-reduction method: plaque formation in Vero cells induced by HSV-I
Experimental: (2) Measurement of the inhibitory effect of drugs on the formation of plaque in Vero cells induced by HSV-I using plaque-reduction method: Vero cells were seeded into a 24-well plate and grew into a monolayer the next day. Then, the 100 PFU/0.2 ml virus solution was added to infect the cells, and a cell control group was included. After incubation with the virus, the agarose cover solution for maintenance of cells, containing different concentrations of the test drug, was replaced, followed by cultivation for additional 72 hours. The cell culture was fixed with 4% paraformaldehyde, stained with 1% crystal violet solution, washed, and dried. The plaque was counted to calculate plaque-forming inhibition ratio of the drug. [formula] 5. Study on the Action Mode of the Test Drug

[2] = tested on: HSV-I; test: Action mode: inhibitory effect on HSV-I adsorption (CPE, CCK-8)
Experimental: (1) The inhibitory effect of drugs on HSV-I adsorption: Vero cells were seeded in a 96-well plate and grew into a monolayer, before pretreatment with different concentrations of samples. Then, HSV-I virus solution was added at 100 μl/well, followed by incubation for 1 hour. Finally, the cell maintenance solution was replaced, and the cells were further cultured. After 72 hours, the effect on the adsorption of virus was determined using the CCK-8 method.

[3] = tested on: HSV-I; test: Action mode: direct inactivation effect on HSV-I (CPE, CCK-8)
Experimental: (3) The direct inactivation effect of drugs on HSV-I: Vero cells were seeded in a 96-well plate and grew into a monolayer. Different concentrations of samples were respectively mixed with the virus solution, followed by placing at 37° C. for 1 hour. Then, the solution was added the cells, and incubated for 1 hour. Then, the cell maintenance solution was replaced, and the cells were further cultured. After 72 hours, the direct inactivation effects of drugs on HSV-I was determined using the CCK-8 method. Moreover, a virus control group was set up.

[4] = tested on: HSV-I; test: Action mode: inhibitory effect on HSV-I replication (CPE, CCK-8); settings: n = 6
Experimental: (2) The inhibitory effect of drugs on HSV-I replication: Vero cells were seeded in a 96-well plate and grew into a monolayer, before adding HSV-I virus solution at 100 μl/well, followed by incubation for 1 hour. Then, the cell maintenance solution containing different concentrations of sample was replaced, and the cells were further cultured. After 72 hours, the effect on the replication of virus was determined using the CCK-8 method.

## COc1c(O)c(Cc2c(O)c(OC)c(O)c3c(=O)c(-c4ccc(O)c(S(=O)(=O)[O-])c4)coc23)c2occ(-c3ccc(O)c(S(=O)(=O)[O-])c3)c(=O)c2c1O.[Na+].[Na+] [Compound 2, 8,8″-methylene-di-(sodiumtectorigenin-5′-sulphonate)]
[1]
  inhibitory effect on plaque formation induced by HSV-I (in words): significant inhibitory effect
[2]; 5.97 μg/ml, n = 6
  Effect on viral adsorption: OD value: 0.24 ± 0.03
[2]; 11.94 μg/ml, n = 6
  Effect on viral adsorption: OD value: 0.23 ± 0.05
[2]; 23.88 μg/ml, n = 6
  Effect on viral adsorption: OD value: 0.24 ± 0.04
[2]; 47.45 μg/ml, n = 6
  Effect on viral adsorption: OD value: 0.25 ± 0.04
[2]; 95.50 μg/ml, n = 6
  Effect on viral adsorption: OD value: 0.26 ± 0.06
[2]; 191.00 μg/ml, n = 6
  Effect on viral adsorption: OD value: 0.25 ± 0.06
[2]; 382.00 μg/ml, n = 6
  Effect on viral adsorption: OD value: 0.24 ± 0.06
[2]; CPE method
  inhibitory effect on viral adsorption (in words): almost no inhibitory effect
[2]; Human alphaherpesvirus 1, 5.97 μg/ml, n = 6, read-out: Effect on viral adsorption: Inhibition rate (%)
  inhibition at 5.97 µg/mL: 4.97%
[2]; Human alphaherpesvirus 1, 11.94 μg/ml, n = 6, read-out: Effect on viral adsorption: Inhibition rate (%)
  inhibition at 11.94 µg/mL: 4.83%
[2]; Human alphaherpesvirus 1, 23.88 μg/ml, n = 6, read-out: Effect on viral adsorption: Inhibition rate (%)
  inhibition at 23.88 µg/mL: 5.22%
[2]; Human alphaherpesvirus 1, 47.45 μg/ml, n = 6, read-out: Effect on viral adsorption: Inhibition rate (%)
  inhibition at 47.45 µg/mL: 6.97%
[2]; Human alphaherpesvirus 1, 95.50 μg/ml, n = 6, read-out: Effect on viral adsorption: Inhibition rate (%)
  inhibition at 95.5 µg/mL: 7.33%
[2]; Human alphaherpesvirus 1, 191.00 μg/ml, n = 6, read-out: Effect on viral adsorption: Inhibition rate (%)
  inhibition at 191 µg/mL: 6.16%
[2]; Human alphaherpesvirus 1, 382.00 μg/ml, n = 6, read-out: Effect on viral adsorption: Inhibition rate (%)
  inhibition at 382 µg/mL: 5.39%
[3]; 5.97 μg/ml, n = 6
  Direct inactivation: OD value: 0.33 ± 0.04
[3]; 11.94 μg/ml, n = 6
  Direct inactivation: OD value: 0.39 ± 0.05
[3]; 23.88 μg/ml, n = 6
  Direct inactivation: OD value: 0.48 ± 0.06
[3]; 47.45 μg/ml, n = 6
  Direct inactivation: OD value: 0.55 ± 0.08
[3]; 95.50 μg/ml, n = 6
  Direct inactivation: OD value: 0.65 ± 0.08
[3]; 191.00 μg/ml, n = 6
  Direct inactivation: OD value: 0.90 ± 0.09
[3]; 382.00 μg/ml, n = 6
  Direct inactivation: OD value: 1.08 ± 0.06
[3]; CPE method
  direct inactivation of the virus (in words): significant effect
[3]; Human alphaherpesvirus 1, 5.97 μg/ml, n = 6, read-out: Direct inactivation: Inhibition rate (%)
  inhibition at 5.97 µg/mL: 3.91%
[3]; Human alphaherpesvirus 1, 11.94 μg/ml, n = 6, read-out: Direct inactivation: Inhibition rate (%)
  inhibition at 11.94 µg/mL: 10.8%
[3]; Human alphaherpesvirus 1, 23.88 μg/ml, n = 6, read-out: Direct inactivation: Inhibition rate (%)
  inhibition at 23.88 µg/mL: 22.4%
[3]; Human alphaherpesvirus 1, 47.45 μg/ml, n = 6, read-out: Direct inactivation: Inhibition rate (%)
  inhibition at 47.45 µg/mL: 31.2%
[3]; Human alphaherpesvirus 1, 95.50 μg/ml, n = 6, read-out: Direct inactivation: Inhibition rate (%)
  inhibition at 95.5 µg/mL: 44.2%
[3]; Human alphaherpesvirus 1, 191.00 μg/ml, n = 6, read-out: Direct inactivation: Inhibition rate (%)
  inhibition at 191 µg/mL: 76%
[3]; Human alphaherpesvirus 1, 382.00 μg/ml, n = 6, read-out: Direct inactivation: Inhibition rate (%)
  inhibition at 382 µg/mL: 98.7%
[4]; 5.97 μg/ml
  Effect on viral replication: OD value: 0.33 ± 0.05
[4]; 11.94 μg/ml
  Effect on viral replication: OD value: 0.36 ± 0.07
[4]; 23.88 μg/ml
  Effect on viral replication: OD value: 0.62 ± 0.05
[4]; 47.45 μg/ml
  Effect on viral replication: OD value: 0.80 ± 0.05
[4]; 95.50 μg/ml
  Effect on viral replication: OD value: 0.97 ± 0.09
[4]; 191.00 μg/ml
  Effect on viral replication: OD value: 0.98 ± 0.12
[4]; 382.00 μg/ml
  Effect on viral replication: OD value: 0.99 ± 0.02
